Assay results: patent US20260174819A1, “COMPOSITIONS AND METHODS FOR OBTAINING HUMAN ALVEOLAR CELLS AND RELATED USES THEREOF” (The Regents of the University of Michigan, priority 2022, published 2026)

Legend:
[1] = test system: BTP organoids; assay: BTP organoid differentiation, RT-qPCR of AT2 and BTP markers; assay type: cell-based, human; conditions: 7 days
Procedure: Primary BTP organoid cultures from 15-18.5 weeks post conception lung tissue were established and maintained as previously reported^3,21,22. BTP organoids were maintained in maintenance media (described below) under 8 mg/mL Matrigel (Corning Cat #354234), fed every three days and passaged 1:3 every 7-10 days by needle sheering.
Differentiations were performed on BTP organoids at passage three by removing maintenance media consisting of: DMEM/F-12 (Corning, Cat #10-092-CV), 100 U/mL penicillin-streptomycin (Thermo Fisher, Cat #15140122), 1×B-27 supplement (Thermo Fisher, Cat #17504044), 1× N2 supplement (Thermo Fisher, Cat #17502048), 0.05% BSA (Sigma, Cat #A9647), 50 μg/mL L-ascorbic acid (Sigma,Cat #A4544), 0.4 μM 1-Thioglycerol (Sigma, Cat #M1753), 50 nM all-trans retinoic acid (Sigma, Cat #R2625), 10 ng/ml recombinant human FGF7 (R&D Systems, Cat #251-KG), and 3 μM CHIR99021 (APE×BIO, Cat #A3011) and replacing with differentiation media. For data in FIG. 3 multiple differentiation medias were tested, all of which consisted of maintenance media with the addition of 1 μM A-8301 and/or the addition of 100 ng/ml BMP4 and/or removal of all trans retinoic acid. B-27 supplement without vitamin A (Thermo Fisher, Cat #12587010) was used instead of full B-27 supplement in conditions in which all trans retinoic acid was removed. For data in all FIGS. 4, 6, 7, 10 differentiation media consisted of common components: DMEM/F12, 100 U/mL penicillin-streptomycin, 1×B-27 supplement without vitamin A, 1× N2 supplement, 0.05% BSA, 50 μg/mL L-ascorbic acid, 0.4 μM 1-Thioglycerol. 10 ng/ml recombinant human FGF7, and 3 μM CHIR99021. To make CK+AB differentiation media 1 μM A-8301 and 100 ng/mL BMP4 was added. To make CKDCI differentiation media 50 nM Dexamethasone (Sigma, Cat #D4902), […] 3-isobutyl-1-methylxanthine (Sigma, Cat #I5879) and […] 8-Bromoadensoine 3′,5′-cyclic monophosphate sodium salt (Sigma, Cat #B7880) was added. Differentiations were fed every three days and passaged at seven day intervals by needle sheering.
(§1) Organoids were dislodged from Matrigel using a P1000 tip, pelleted in a 1.5 mL tube and flash frozen by placing the tube in a small amount of liquid nitrogen with minimal residual media. RNA was isolated from frozen pellets using the MagMax-96 Total RNA Isolation kit (Thermo Fisher, Cat #AM1830) according to the manufacturer's recommendations. RNA quality and yield was determined on a Nanodrop 2000 spectrophotometer. Reverse Transcription was performed in triplicate for each biological replicate using the SuperScript VILO cDNA kit with 200 ng RNA per reaction. After Reverse Transcription, cDNA was diluted 1:2 with DNAse/RNAse free water and 1/40th of the final reaction was used for each RT-qPCR measurement. RT-qPCR measurements were performed using a Step One Plus Real-Time PCR System (Thermo Fisher, Cat #43765592 R) using QuantiTect SYBR Green qPCR Master Mix (Qiagen, Cat #204145) with primers at a concentration of 500 nM. Sequences for RT-qPCR primers used in this manuscript are in Table 2.
For RT-qPCR data arbitrary units (AUs) of gene expression was first calculated using the following equation: 2^(GAPDHCt-TargetCt)×10,000. For FIG. 12B, FIG. 5D, FIG. 7I, FIG. 9E, and FIG. 10H the AUs for each biological replicate were calculated from the mean of technical replicates and a ratio paired t-test was performed between the two conditions compared to determine statistical significance (p). […] For FIG. 3E AUs were normalized to AUs of expression in progenitor media for each biological replicate to obtain fold change. Repeated measures one-way ANOVA was performed with Dunnett's correction on linearized (log-transformed) fold change values comparing all experimental conditions to progenitor medium to determine p.

[2] = test system: canalicular stage human lung ALI explants; assay: Lung ALI explant culture, immunofluorescent staining; assay type: cell-based; conditions: for SFTPA staining in ProSFTPC-positive cells: relative to untreated explants
Procedure: Human fetal lung within the canalicular stage of lung development was utilized for lung ALI explant cultures (specifically 15-18.5 weeks post conception). Small pieces (<0.5 cm diameter) were dissected from distal regions of the lung and placed on Nucleopore Track-Etched Membrane disks (13 mm, 8 μm pore, poly-carbonate) (Sigma, Cat #WHA110414) floating on top of 500 μl of human lung ALI explant media (Advanced DMEM/F-12 (Thermo Fisher, Cat #12634010), 2 mM Glutamax (Thermo Fisher, Cat #35050061), 15 mM HEPES (Corning, Cat #25060CI), 1× B27 Supplement (Thermo Fisher, Cat #17504044) 1×N-2 Supplement (Thermo Fisher, Cat #17502048), 100 U/mL penicillin-streptomycin (Thermo Fisher, Cat #15140122)) in a 24-well tissue culture plate (Thermo Fisher, Cat #12565163). Where indicated, 1 μM A-8301 (APE×BIO Cat #A3133), 100 ng/mL rhTGFβ1 (R&D Systems Cat #240-B-002), 100 ng/mL rhNOGGIN (produced in-house) or 100 ng/mL BMP4 (R&D Systems Cat #314-BP-050) was added to human lung ALI explant media.
All samples processed were fixed for 24 h in 10% Neutral Buffered Formalin at room temperature with gentle agitation. Samples were washed 3× with UltraPure DNase/RNase-free distilled water (Thermo Fisher, Cat #10977015) and dehydrated through an alcohol series consisting of 25%, 50%, 75% and 100% methanol, followed by 100% and 70% ethanol. For tissue and explants each step was performed for at least 1 h. For organoids each step was performed for at least 15 min. In the case of explants and organoids, specimens were embedded in Histogel (VWR Cat #83009-992) prior to paraffin processing. Samples were paraffin processed in an automated tissue processor through the following series: 70%, 80%, 2× 95%, 3× 100% ethanol, 3× xylene and 3× paraffin with 1 h for each step. Tissue was embedded into paraffin blocks and cut into 5 μm-thick sections onto charged glass slides using a microtome. Slides were baked for 1 h at 60° C. immediately prior to staining.
Slides were treated with 2× HistoClear II (National Diagnostics, Cat #HS-202) washes, then rehydrated through washes in 100%, 95%, 70%, 30% ethanol for 4 min each, with buffer exchanges performed halfway through washing. Then, slides were washed 2×5 min with ddH20. Antigen retrieval in 1× Sodium Citrate Buffer (100 mM trisodium citrate (Sigma, Cat #S1804), 0.5% Tween-20 (Thermo Fisher, Cat #BP337), pH 6.0) for 20 min at 99° C. After washing 3× in ddH20 slides were blocked for 1 h with blocking solution: 5% normal donkey serum (Sigma, Cat #D9663), 0.1% Tween-20 in PBS. Slides were then incubated in primary antibodies diluted in blocking solution in a humidified chamber at 4° C. overnight. Slides were washed 3× in 1×PBS for 10 min each. Slides were incubated with secondary antibodies and DAPI (1 μg/mL) diluted in blocking solution for 1 h, then were washed 3× in 1×PBS for 5 min each. Slides were mounted in ProLong Gold (Thermo Fisher, Cat #P369300) and imaged within 2 weeks. Primary and secondary antibodies used in this study are available in Table 1.

[3] = test system: CK+AB induced AT2-like organoids; assay: Expansion of AT2-like organoids in SFFF media (growth, RT-qPCR, IF, FACS); assay type: cell-based, human; conditions: for MUC5AC expression (RT-qPCR) on removal of the component from SFFF / SFTPC expression (RT-qPCR) on removal of the component from SFFF: SFFF lacking the component vs SFFF
Procedure: After 21 days of differentiation in CK+AB or CK+DCI organoids were passaged and fed with SFFF or SFFF without FGF10 consisting of: Advanced DMEM/F12, 2 mM Glutamax, 1× B27 supplement, 100 U/mL penicillin-streptomycin, 15 mM HEPES, 0.05% BSA, 10 μM TGFβ inhibitor SB43152 (APExBIO, Cat #A8249), 1 μM p38 MAP kinase inhibitor BIRB796 (APExBIO, Cat #A5639), 3 μM CHIR99021, 50 ng/mL rhEGF (R&D Systems, Cat #236-EG) with (SFFF) or without the addition of 10 ng/mL FGF10 (produced in-house). Organoids were passaged every 7-14 days at a ratio of 1:6 by needle sheering^93.
as §1
Organoids were retrieved from Matrigel by mechanical dissociation with a P1000, washed 2× with 1 mL PBS and, resuspended with TrypLE and incubated at 37° C. until a single cell suspension was obtained with light pipetting (typically 10 min). Cells were washed 3× with 1 mL of FACS buffer consisting of PBS, 2% BSA and 10 μM Y-27632 (APE×BIO, Cat #3008) and then filtered through a […] mesh. Cells were stained for 1 h on ice in FACS buffer with a 1:60 dilution of anti HTII-280 IgM antibody. Cells were washed 3× with 1 mL of FACS buffer before 30 min of staining in FACS buffer with a 1:1000 dilution of anti-mouse IgM-Alexaflour-488 secondary antibody (Jackson Immunoresearch, Cat #715545140) on ice. After 3× washes with 1 mL of FACS buffer cells were suspended in FACS buffer with 1:4000 dilution of DAPI. […] All steps were carried out at 4° C. unless otherwise indicated. Cells were pelleted at 500×G for 5 min in swing bucket rotors. FACS was performed on either a Sony MA900 or the ThermoFisher Bigfoot Spectral Cell Sorter and analyzed in FlowJo v10.

[4] = CK+AB in absence vs presence of ATRA
[5] = added to bud tip progenitor media, vs progenitor media

## CC1=C(/C=C/C(C)=C/C=C/C(C)=C/C(=O)O)C(C)(C)CCC1 [ATRA, all-trans retinoic acid]
[1]; [4]
  SFTPB expression (RT-qPCR) on removal of ATRA: reduced
  SFTPC expression (RT-qPCR) on removal of ATRA: significantly enhancing
  SOX9 expression (RT-qPCR) on removal of ATRA: reducing

## Cc1cccc(-c2nn(C(=S)Nc3ccccc3)cc2-c2ccnc3ccccc23)n1 [A-8301]
[2]; day 6 ALI explants
  SFTPA staining in ProSFTPC-positive cells: increased
[1]; [5]
  BTP marker SOX9 expression (RT-qPCR): Neither treatment alone significantly reduced
  SFTPA1 expression (RT-qPCR): significantly increased
  SFTPC expression (RT-qPCR): significantly increased

## TGFβ1: recombinant TGFβ1, activator of TGFβ-signaling, 100 ng/mL
[2]; ALI explants
  TP63 expression in epithelial cells: most epithelial cells expressing TP63
[2]; day 6 ALI explants
  ProSFTPC staining: reduced
  SFTPA staining in ProSFTPC-positive cells: barely detectible

## Cc1ccc(-n2nc(C(C)(C)C)cc2NC(=O)Nc2ccc(OCCN3CCOCC3)c3ccccc23)cc1 [BIRB797, reference compound]
[3]
  MUC5AC expression (RT-qPCR) on removal of the component from SFFF: increased
  SFTPC expression (RT-qPCR) on removal of the component from SFFF: improved expression

B1: FGF10: recombinant human FGF10, 10 ng/mL, produced in-house, component of SFFF (protein, UniProt O15520 38-208, looked up)
Fibroblast growth factor 10: QALGQDMVSPEATNSSSSSFSSPSSAGRHVRSYNHLQGDVRWRKLFSFTKYFLKIEKNGKVSGTKKENCPYSILEITSVEIGVVAVKAINSNYYLAMNKKGKLYGSKEFNNDCKLKERIEENGYNTYASFNWQHNGRQMYVALNGKGAPRRGQKTRRKNTSAHFLPMVVHS
[3]
  MUC5AC expression (RT-qPCR) on removal of the component from SFFF: reduction of MUC5AC to near-zero levels
  SFTPC expression (RT-qPCR) on removal of the component from SFFF: improved expression
[3]; SFFF with vs without FGF10
  AT2 phenotype of CK+AB differentiated AT2-like cells: repressed

B2: NOGGIN: recombinant BMP inhibitor NOGGIN, 100 ng/mL, produced in-house (protein, UniProt Q13253 28-232, looked up)
Noggin: QHYLHIRPAPSDNLPLVDLIEHPDPIFDPKEKDLNETLLRSLLGGHYDPGFMATSPPEDRPGGGGGAAGGAEDLAELDQLLRQRPSGAMPSEIKGLEFSEGLAQGKKQRLSKKLRRKLQMWLWSQTFCPVLYAWNDLGSRFWPRYVKVGSCFSKRSCSVPEGMVCKPSKSVHLTVLRWRCQRRGGQRCGWIPIQYPIISECKCSC
[2]; day 6 ALI explants, 100 ng/mL NOGGIN
  phosphoSMAD1/5/8 staining: blocked
[2]; day 6 ALI explants
  SFTPA staining in ProSFTPC-positive cells: did not change

B3: BMP4: recombinant BMP4, BMP-activator, 100 ng/mL (R&D Systems) (protein, UniProt P12644 293-408, looked up)
Bone morphogenetic protein 4: SPKHHSQRARKKNKNCRRHSLYVDFSDVGWNDWIVAPPGYQAFYCHGDCPFPLADHLNSTNHAIVQTLVNSVNSSIPKACCVPTELSAISMLYLDEYDKVVLKNYQEMVVEGCGCR
[2]; day 6 ALI explants
  SFTPA staining in ProSFTPC-positive cells: robust and readily detectable levels
[1]; [5]
  BTP marker SOX9 expression (RT-qPCR): Neither treatment alone significantly reduced
  HOPX expression (RT-qPCR): significantly increased
  LAMP3 expression (RT-qPCR): significantly increased
  SFTPA1 expression (RT-qPCR): significantly increased
  SFTPB expression (RT-qPCR): significantly increased
